{"source": "the supplement of paper PMC10307832", "test_in_all_cases": "relative viability (nuclei count vs DMSO), 5 days (fraction); higher = more cells survive", "key": {"TGX 221 + Crizotinib": {"compound": "CC1=CN2C(=O)C=C(N=C2C(=C1)C(C)NC3=CC=CC=C3)N4CCOCC4 [TGX 221] + C[C@@H](Oc1cc(-c2cnn(C3CCNCC3)c2)cnc1N)c1c(Cl)ccc(F)c1Cl [Crizotinib] (partner 1 µM)", "method_in_brief": "(§1)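 Cells from lung cancer lines were seeded into 1536-well plates and, one day later, dosed by pin tool. Treatments were either a single drug or a fixed dose of an anchor drug with five library-drug doses (not always all listed) in √10 steps. After 5 days, nuclei were stained in a one-step fixation (final 0.05% Triton X-100, 1% formaldehyde, 1 ug/ml Hoechst) and counted on 4× images, and relative viability is the treated-to-vehicle nuclei ratio, as the median of duplicate plates.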"}, "TGX 221 + OSI-027": {"compound": "CC1=CN2C(=O)C=C(N=C2C(=C1)C(C)NC3=CC=CC=C3)N4CCOCC4 [TGX 221] + COc1cccc2cc(-c3nc([C@H]4CC[C@H](C(=O)O)CC4)n4ncnc(N)c34)[nH]c12 [OSI-027] (partner 0.5 µM)", "method_in_brief": "as §1"}, "TGX 221 + Dasatinib": {"compound": "CC1=CN2C(=O)C=C(N=C2C(=C1)C(C)NC3=CC=CC=C3)N4CCOCC4 [TGX 221] + Cc1nc(Nc2ncc(C(=O)Nc3c(C)cccc3Cl)s2)cc(N2CCN(CCO)CC2)n1 [Dasatinib] (partner 0.075 µM)", "method_in_brief": "as §1"}, "[1]": {"compound": "C1=CC=C(C(=C1)C2=CC=C(C=C2)C3=CSC4=C3C(=C(C(=O)N4)C#N)O)O + Nc1nc2[nH]cc(CCc3ccc(C(=O)N[C@@H](CCC(=O)O)C(=O)O)cc3)c2c(=O)[nH]1 [Pemetrexed] (partner 0.2 µM)", "method_in_brief": "as §1"}}}
{"cell line": "NCI-H1792", "values": [{"measurement": "relative viability", "setting": "TGX 221 + Crizotinib; first compound 0.08 µM", "value": 0.883}, {"measurement": "relative viability", "setting": "TGX 221 + Crizotinib; first compound 0.253 µM", "value": 1.08}, {"measurement": "relative viability", "setting": "TGX 221 + Crizotinib; first compound 0.8 µM", "value": 0.944}, {"measurement": "relative viability", "setting": "TGX 221 + Crizotinib; first compound 2.53 µM", "value": 0.948}, {"measurement": "relative viability", "setting": "TGX 221 + Crizotinib; first compound 8 µM", "value": 0.857}, {"measurement": "relative viability", "setting": "TGX 221 + OSI-027; first compound 0.08 µM", "value": 0.768}, {"measurement": "relative viability", "setting": "TGX 221 + OSI-027; first compound 0.253 µM", "value": 0.601}, {"measurement": "relative viability", "setting": "TGX 221 + OSI-027; first compound 0.8 µM", "value": 0.71}, {"measurement": "relative viability", "setting": "TGX 221 + OSI-027; first compound 2.53 µM", "value": 0.517}, {"measurement": "relative viability", "setting": "TGX 221 + OSI-027; first compound 8 µM", "value": 0.564}, {"measurement": "relative viability", "setting": "TGX 221 + Dasatinib; first compound 0.08 µM", "value": 0.831}, {"measurement": "relative viability", "setting": "TGX 221 + Dasatinib; first compound 0.253 µM", "value": 0.699}, {"measurement": "relative viability", "setting": "TGX 221 + Dasatinib; first compound 0.8 µM", "value": 0.785}, {"measurement": "relative viability", "setting": "TGX 221 + Dasatinib; first compound 2.53 µM", "value": 0.7}, {"measurement": "relative viability", "setting": "TGX 221 + Dasatinib; first compound 8 µM", "value": 0.503}, {"measurement": "relative viability", "setting": "[1]; first compound 0.253 µM", "value": 0.835}, {"measurement": "relative viability", "setting": "[1]; first compound 0.8 µM", "value": 0.714}, {"measurement": "relative viability", "setting": "[1]; first compound 2.53 µM", "value": 0.649}, {"measurement": "relative viability", "setting": "[1]; first compound 8 µM", "value": 0.477}]}
